Test results: patent publication US10463716B2 (UNIVERSITY OF MARYLAND, BALTIMORE, priority 2014, dated 2019)

Columns and labels:
HUVECs = experiment: In vitro angiogenesis (tube formation) assay; format: cell-based, human
Method: Tube formation assay for angiogenesis was conducted in 24-well plates were coated with 50 μl of Geltrex (Life Technologies, A14133-02) and left for polymerization by incubation for 1 hour at 37° C. […] Quantification of tube formation was performed after 10 hours of culture by calculating the number of branching point formed in each well under an inverted phase contrast photomicroscope (Olympus IX5O) as described^37.
ELA is a secreted hormone and expressed in adult kidney and prostate, and may, therefore, circulate in blood. […] Vascular tube formation assay is a well-used in vitro study to assess angiogenic factors and conditions in which vascular cells, e.g., human umbilical […] endothelial cells (HUVECs), can form tube-like structures under proangiogenic conditions in culture wells coated with Geltrex containing extra-cellular matrix. The number of branch points was an indicator of the strength of angiogenic stimuli.

mouse aortic rings = experiment: Endothelium-dependent and -independent vasorelaxation of aortic rings; conditions: for decrease of relaxation by removal of endothelium: denuded vs endothelium-intact vessels
Method: Aortas were isolated from 8-10 weeks male wild-type C57BL/6 mice, cut into 3-mm rings and mounted in organ chambers (PowerLab, AD Instruments, CO, USA) in Kreb's buffer as described previously (11, 12). The contractile response was elicited by vasoconstrictor U46619 (30 nM) to produce contraction. […] In some preparations, the endothelium was mechanically removed from denuded arteries by gentle rubbing off the intimal surface with a wooden stick.
Apelin is reported to relax vascular tone (14) and lower blood pressure. […] The aortic rings were induced to contraction with vasoconstrictor U46619 (final concentration, 30 nM).
To further determine whether nitric oxide (NO) participated in the relaxation, the blood vessels were pretreated with L-NAME, an NO production inhibitor. […] The effect of apelin-13 on blood vessels was studied in parallel for comparison.

[1] = system: aldosterone synthase CYP11B2; experiment: Ang II-induced aldosterone synthase gene expression (qPCR) in HAC15 cells; format: cell-based, human; conditions: ELA 50 nM, Ang II 10 nM, 47 hours
C57/BL mice = experiment: MI-induced heart failure by coronary artery ligation, echocardiography; format: in vivo, mouse
Method: C57/BL wild type mice at age of 14-16 months old were used. Mice were subjected to either MI by permanent ligation or sham treatment with a loose suture of the proximal left anterior descending (LAD) coronary artery under general anesthesia by 2% isoflurane inhalation, and mechanical ventilation via oral intubation. Left thoracotomy in the 3-4 intercostal space was performed and the pericardium was opened to expose the LV and the LAD. The artery was circled a 8-0 silk suture, and then either ligated permanently or remained loose (sham).
Twelve to 14 mice were used in each group.
Data were calculated with the accepted formulae, which have been validated in mice.
Coronary artery ligation (CAL) is a well-used procedure to create a mouse model of acute myocardial infarction (MI) and heart failure (HF). […] Echocardiography was conducted to access heart function before the procedure (baseline), and at 1 week and 5 weeks post-MI.

human cardiomyocytes = experiment: Hypoxia-induced apoptosis (TUNEL) in cardiomyocytes from human pluripotent stem cells; format: cell-based; conditions: ELA 0.5 μM
Excerpt: Cellular mechanisms of cardioprotection in MI include the less cell death due to necrosis and apopotosis, increased angiogenesis and reduced fibrosis. […] Apelin is reported to protect against glucose deprivation-induced apoptosis in rat neonatal cardiomyocytes and to increase Akt and mTOR phosphorylation.

C57/BL6 mice = experiment: Diuresis in anesthetized mice; format: in vivo, mouse; conditions: 200 nmol/kg intravenously, one hour collection vs baseline hour
Excerpt: Four male C57/BL6 mice aged from 10 to 12 weeks were anesthetized with pentobarbital and then placed on a heated table to maintain body temperature and tracheotomized. Catheters were inserted into the external jugular veins for infusing normal saline to replace fluid loss and anesthesia, and into carotid artery for measuring blood pressure and heart rates. Urine was collected via a suprapubic cystostomy (PE-50-flanged end). After a 30-min stabilization period, urine was collected for a period of one hour as a baseline volume.

Sprague-Dawley rats = experiment: MI-induced heart failure by coronary artery ligation in rats, Fc-ELA-32; format: in vivo, rat
Method: It was studied whether Fc-ELA fusion proteins have cardioprotective activities in heart failure caused by myocardial infarction (MI) in rats. MI was inflicted by standard left anterior descending coronary artery ligation (CAL) in Sprague-Dawley rats (8-weeks old, male). One week post-operation, recombined Fc-ELA-32 protein was administrated by subcutaneous injection at the dosage of 300 μg/kg bodyweight/day for two weeks. Phosphate-buffered saline (PBS) was used as the control. One week after the administration or at the end of the four weeks of MI, cardiac performance was evaluated by a pressure transducer which was inserted retrograde from the right carotid artery to the left ventricle cavity. Heart tissue samples were taken and fixed with 4% paraformaldehyde for 24 hours and then embedded in paraffin and sectioned for histopathologic examination.
Apoptosis was assessed by terminal deoxynucleotidyl transferase-mediated dUTP nick end labeling (TUNEL) and caspase-3 activity assay. […] TUNEL-positive nuclei in the LV free wall were counted within a 4-mm^2 square of field. […]
Masson staining which specifically stains collagens in blue was conducted on tissue sections of the infarcted heart area. Collagen volume fraction (CVF) is calculated by dividing of the blue stained area, which scattered between the surviving myocytes and around the blood vessels by the total area. […]

[2] = system: human pluripotent stem cells (PSCs); experiment: Cardiomyocyte differentiation from pluripotent stem cells; format: cell-based; conditions: data not shown
Excerpt: The question of whether ELA-APJ promotes human pluripotent stem cells (PSCs) into mesoderm derivatives including mesenchymal stem cells, adipocytes and cardiomyocytes was studied. […] Without being bound by theory, the kidney is a crucial organ that maintains circulation homeostasis.

APJ = experiment: qPCR of APJ mRNA in mice infused with ELA; format: in vivo, mouse
[3] = system: empty vector control CHO-K 1 cells; experiment: Parallel control experiments (cAMP, ERK, calcium) in empty vector cells; format: cell-based, Chinese hamster; conditions: cells transduced with empty vector control viruses
Excerpt: Activation of APJ is known to result in a decrease of cAMP production, stimulation of ERK and increase in intercellular calcium mobilization (13). […] APJ-over-expressing and empty vector control CHO-K 1 cells were used in the studies. APJ expression was confirmed by RT-PCR. […] The response was dose-dependent up to the concentration of 10^−5M (FIG. 3C, lower panel).

[4] = mature ELA hormone; cited from earlier work
[5] = endothelium-intact vessels, contracted with U46619 30 nM

Compound: CSCC[C@H](NC(=O)[C@@H](NC(=O)[C@H](CC(C)C)NC(=O)[C@H](CC(N)=O)NC(=O)[C@@H](NC(=O)[C@@H]1CCCN1C(=O)[C@H](CCCNC(=N)N)NC(=O)[C@@H](N)CCC(N)=O)C(C)C)[C@@H](C)O)C(=O)N[C@@H](CCCNC(=N)N)C(=O)N[C@@H](CCCNC(=N)N)C(=O)N[C@@H](CCCCN)C(=O)N[C@@H](CC(C)C)C(=O)N[C@@H](CCCNC(=N)N)C(=O)N[C@@H](CCCCN)C(=O)N[C@@H](Cc1c[nH]cn1)C(=O)N[C@@H](CC(N)=O)C(=O)N[C@H]1CSSC[C@@H](C(=O)N[C@@H](CCSC)C(=O)N2CCC[C@H]2C(=O)N[C@@H](CC(C)C)C(=O)N[C@@H](Cc2c[nH]cn2)C(=O)N[C@@H](CO)C(=O)N[C@@H](CCCNC(=N)N)C(=O)N[C@H](C(=O)N2CCC[C@H]2C(=O)N[C@@H](Cc2ccccc2)C(=O)N2CCC[C@H]2C(=O)O)C(C)C)NC(=O)[C@H](CCCNC(=N)N)NC(=O)[C@H](CCCNC(=N)N)NC(=O)[C@H](CCC(N)=O)NC(=O)[C@H](CC(C)C)NC1=O [ELA, Elabela]
- formation of tubular structures (HUVECs; APJ-knock down HUVECs): not effective
- increase in number of branch points (HUVECs; ELA 0.1 μM): 71.9%
- increase in number of branch points (HUVECs; ELA 0.5 μM): 222.8%
- increase in number of branch points (HUVECs; ELA 1 μM): 266.7%
- decrease of relaxation by removal of endothelium (mouse aortic rings): about 20%
- maximum relaxation (mouse aortic rings; [5]): 73.7%
- relaxation, L-NAME-treated vs none-treated vessels (mouse aortic rings; pretreated with 1 mM L-NAME): No significant difference
- Ang II-induced gene expression of aldosterone synthase [1]: significantly suppressed
- FS_LVD (C57/BL mice; MI mice, ELA group, Baseline): 29.65 ± 4.16%
- FS_LVPW (C57/BL mice; MI mice, ELA group, Baseline): 30.36 ± 3.65%
- IVSd (C57/BL mice; MI mice, ELA group, Baseline): 0.61 ± 0.05 mm
- IVSs (C57/BL mice; MI mice, ELA group, Baseline): 0.99 ± 0.04 mm
- LVDd (C57/BL mice; MI mice, ELA group, Baseline): 3.87 ± 0.20 mm
- LVDs (C57/BL mice; MI mice, ELA group, Baseline): 2.68 ± 0.11 mm
- LVEF (C57/BL mice; MI mice, ELA group, Baseline): 61.84 ± 7.39%
- LVPWd (C57/BL mice; MI mice, ELA group, Baseline): 0.70 ± 0.03 mm
- LVPWs (C57/BL mice; MI mice, ELA group, Baseline): 1.01 ± 0.04 mm
- FS_LVD (C57/BL mice; MI mice, ELA infusion, Week 5): 22.68 ± 1.21 %
- FS_LVPW (C57/BL mice; MI mice, ELA infusion, Week 5): 22.46 ± 4.49%
- IVSd (C57/BL mice; MI mice, ELA infusion, Week 5): 0.73 ± 0.07 mm
- IVSs (C57/BL mice; MI mice, ELA infusion, Week 5): 0.96 ± 0.11 mm
- LVDd (C57/BL mice; MI mice, ELA infusion, Week 5): 4.48 ± 0.17 mm
- LVDs (C57/BL mice; MI mice, ELA infusion, Week 5): 3.47 ± 0.16 mm
- LVEF (C57/BL mice; MI mice, ELA infusion, Week 5): 45.65 ± 2.16 %
- LVPWd (C57/BL mice; MI mice, ELA infusion, Week 5): 0.75 ± 0.05 mm
- LVPWs (C57/BL mice; MI mice, ELA infusion, Week 5): 0.97 ± 0.04 mm
- degree of left ventricular dilation and contractile dysfunction (C57/BL mice; MI mice, ELA vs vehicle): significantly mitigated
- mice died during the experimental period (C57/BL mice; MI mice, one-month experimental period, control three of nine): one of eight
- heart performance in sham op animals, vehicle vs ELA (C57/BL mice; sham op mice): no statistical difference
- number of TUNEL-stained cells (human cardiomyocytes): significantly reduced
- urine volume (C57/BL6 mice): increased by about one fold
- TUNEL green-labeled apoptotic cells in heart sections (Sprague-Dawley rats): much less green-labeled cells
- cardiomyocyte differentiation from PSCs [2]: potent inducer of cardiomyocyte differentiation
- APJ mRNA expression (APJ): tended to decrease
- changes in cAMP, ERK ½ and calcium assays in empty vector control cells [3]: no meaningful changes
- isoelectric point [4]: exceeding 12

Compound: apelin-13 [reference compound]
- maximum relaxation (mouse aortic rings; denuded (endothelium removed) vessels): 31%
- decrease of relaxation by removal of endothelium (mouse aortic rings): 48%
- maximum relaxation (mouse aortic rings; [5]): 79%
